Assays:
Format in all cases: cell-based
Colletotrichum capsici = Colletotrichum capsici (anthracnose) in vitro test, radial growth on Potato Dextrose Agar; conditions: Colletotrichum truncatum, 168 h; 300 ppm; seven days, 25° C.; read-out: % control compared to the untreated check (radial growth)
Septoria lycopersici = Septoria lycopersici (leaf spot of tomato) in vitro test, radial growth on Potato Dextrose Agar; conditions: 168 h, seven days, 25° C., read-out: % control compared to the untreated check (radial growth)
Alternaria solani = Alternaria solani (early blight of tomato/potato) in vitro test, radial growth on Potato Dextrose Agar; conditions: 168 h, 300 ppm, seven days, 25° C., read-out: % control compared to the untreated check (radial growth)
Fusarium culmorum = Fusarium culmorum (foot rot of cereals) in vitro test, radial growth on Potato Dextrose Agar; conditions: Fusarium culmorum, 168 h, read-out: % control compared to the untreated check (radial growth)
Botrytis cinerea = Botrytis cinerea (gray mold) in vitro test, radial growth on Potato Dextrose Agar; conditions: 168 h, 300 ppm, seven days, 22° C., read-out: % (control) compared to the untreated check (radial growth)
Rhizoctonia solani = Rhizoctonia solani (rice sheath blight/potato black scurf) in vitro test, radial growth on Potato Dextrose Agar; conditions: 168 h, 300 ppm, seven days, 25° C., read-out: % control compared to the untreated check (radial growth)
Pyricularia oryzae = assay: microbe, parasite or virus in culture; conditions: 168 h, read-out: % control compared to the untreated check (radial growth)

| SMILES | inhibition of growth at 300 ppm (Colletotrichum capsici) [%] | inhibition of growth at 300 ppm (Septoria lycopersici) [%] | inhibition of growth at 300 ppm (Alternaria solani) [%] | inhibition of growth at 300 ppm (Fusarium culmorum) [%] | inhibition of growth at 300 ppm (Botrytis cinerea) [%] | inhibition of growth at 300 ppm (Rhizoctonia solani) [%] | inhibition of growth at 300 ppm (Pyricularia oryzae) [%] |
| --- | --- | --- | --- | --- | --- | --- | --- |
| CCN(C)C=Nc1cc(C)c(Cc2cc(C(F)(F)F)ccc2C)cc1C [Compound 53, N′-(2,5-dimethyl-4-(2-methyl-5-(trifluoromethyl)benzyl)phenyl)-N-ethyl-N-methylformimidamide] | > 80 | > 70 | > 75 | 75 | > 80 | – | – |
| CCN(C)C=Nc1cc(C)c(Cc2cc(C)cc(F)c2)cc1C [Compound 200, N-ethyl-N′-(4-(3-fluoro-5-methylbenzyl)-2,5-dimethylphenyl)-N-methylformimidamide] | > 80 | > 70 | > 75 | 75 | > 80 | > 80 | > 75 |
| CCN(C)C=Nc1cc(C)c(Cc2cc(C(F)(F)F)ccc2Cl)cc1C [Compound 159, N′-(4-(2-chloro-5-(trifluoromethyl)benzyl)-2,5-dimethylphenyl)-N-ethyl-N-methylformimidamide] | > 80 | > 70 | > 75 | 75 | > 80 | > 80 | > 75 |
| CCN(C)C=Nc1cc(C(F)(F)F)c(Cc2ccc(C)cc2)cc1F [Compound 225, N-ethyl-N′-(2-fluoro-4-(4-methylbenzyl)-5-(trifluoromethyl)phenyl)-N-methylformimidamide] | > 80 | > 70 | > 75 | 75 | > 80 | > 80 | > 75 |
| CCN(C)C=Nc1cc(Cl)c(Cc2ccc(C)cc2)cc1C [Compound 261, N′-(5-chloro-2-methyl-4-(4-methylbenzyl)phenyl)-N-ethyl-N-methylformimidamide] | > 80 | > 70 | > 75 | 75 | > 80 | > 80 | > 75 |
| CCN(C)C=Nc1cc(C)c(Cc2ccc(OC(F)(F)F)cc2)cc1C [Compound 117, N′-(2,5-dimethyl-4-(4-(trifluoromethoxy)benzyl)phenyl)-N-ethyl-N-methylformimidamide] | > 80 | > 70 | > 75 | 75 | > 80 | > 80 | > 75 |
| Cc1cc(N=CN2CCOCC2)c(C)cc1Cc1ccc(F)cc1 [Compound 56, N-(4-(4-fluorobenzyl)-2,5-dimethylphenyl)-1-morpholinomethanimine] | – | > 70 | > 75 | 75 | > 80 | > 80 | > 75 |
| CCN(C)C=Nc1cc(C#N)c(Cc2cccc(F)c2)cc1C [Compound 250, N′-(5-cyano-4-(3-fluorobenzyl)-2-methylphenyl)-N-ethyl-N-methylformimidamide] | – | > 70 | > 75 | 75 | > 80 | > 80 | > 75 |
| CCN(C)C=Nc1cc(C)c(Cc2cccc(OC(F)(F)F)c2)cc1C1CC1 [Compound 224, N′-(2-cyclopropyl-5-methyl-4-(3-(trifluoromethoxy)benzyl)phenyl)-N-ethyl-N-methylformimidamide] | – | > 70 | > 75 | 75 | > 80 | > 80 | > 75 |
| CCN(C)C=Nc1cc(C)c(Cc2cccc(N(C)C)c2)cc1C [Compound 111, N′-(4-(3-(dimethylamino)benzyl)-2,5-dimethylphenyl)-N-ethyl-N-methylformimidamide] | > 80 | > 70 | > 75 | 75 | – | > 80 | > 75 |
| CCN(C)C=Nc1cc(Cl)c(Cc2cccc(C)c2)cc1C [Compound 260, N′-(5-chloro-2-methyl-4-(3-methylbenzyl)phenyl)-N-ethyl-N-methylformimidamide] | > 80 | > 70 | > 75 | 75 | > 80 | – | > 75 |
| CCN(C)C=Nc1cc(C)c(Cc2cccc(C#N)c2)cc1Cl [Compound 72, N′-(2-chloro-4-(3-cyanobenzyl)-5-methylphenyl)-N-ethyl-N-methylformimidamide] | > 80 | > 70 | > 75 | 75 | – | > 80 | > 75 |
| CCN(C)C=Nc1cc(C)c(/C(=N\C)c2ccccc2C)cc1C [Compound 215, N′-(2,5-dimethyl-4-((Z)-(methylimino)(o-tolyl)methyl)phenyl)-N-ethyl-N-methylformimidamide] | > 80 | > 70 | > 75 | 75 | – | > 80 | > 75 |
| Cc1cc(N=CN2CCOCC2)c(C)cc1Cc1ccccc1F [Compound 55, N-(4-(2-fluorobenzyl)-2,5-dimethylphenyl)-1-morpholinomethanimine] | – | > 70 | > 75 | 75 | > 80 | > 80 | > 75 |
| CCN(C)C=Nc1cc(C#N)c(Cc2ccc(C)cc2)cc1C [Compound 252, N′-(5-cyano-2-methyl-4-(4-methylbenzyl)phenyl)-N-ethyl-N-methylformimidamide] | – | > 70 | > 75 | 75 | > 80 | > 80 | > 75 |
| CCN(C)C=Nc1ccc(Cc2ccccc2C)c2ccccc12 [Compound 271, N-ethyl-N-methyl-N′-(4-(2-methylbenzyl)naphthalen-1-yl)formimidamide] | – | > 70 | > 75 | 75 | > 80 | > 80 | > 75 |
| CCN(C)C=Nc1cc(C)c(Cc2ccc(C(F)(F)F)c(F)c2)cc1Cl [Compound 137, N′-(2-chloro-4-(3-fluoro-4-(trifluoromethyl)benzyl)-5-methylphenyl)-N-ethyl-N-methylformimidamide] | > 80 | – | > 75 | 75 | > 80 | > 80 | > 75 |

— US11155517B2, “4-substituted phenylamine derivatives and their use to protect crops by fighting undesired phytopathogenic micoorganisms” (PI INDUSTRIES LTD., priority 2016, dated 2021)
